Drawing on ChEMBL document CHEMBL3045015, “Synthesis and physiological evaluation of new N-nitroso-2,6-dicarbethoxy-3,5-diaryltetrahydro-1,4-thiazine-1,1-dioxides” (Med Chem Res, 2012), this text covers Activity, zone of inhibition and Ratio for 16 molecules.

One series has as its system Mus musculus. Description: Acute toxicity in Mus musculus (mouse) at 300 mg/kg. It counts as organism-based. Details: dose 300 mg/kg. Conditions: in vivo.
For series [1], the system named is Pseudomonas aeruginosa. Put plainly: Antibacterial activity against Pseudomonas aeruginosa […] at 10 ug/ml by disk diffusion method. The class given is functional. Conditions: read-out: IZ.
The subject of series [2] is Staphylococcus aureus. Description: Ratio of compound IZ to amikacin IZ for Staphylococcus aureus MTCC 96 at 10 ug/ml by disk diffusion method. It counts as functional.
For series [3], the system named is Staphylococcus aureus. Put plainly: Antibacterial activity against Staphylococcus aureus MTCC 96 at 10 ug/ml by disk diffusion method. Conditions: read-out: IZ. The class given is functional. In general terms: Agar diffusion results depend on both activity and mobility in agar.
Series [4] relates to Candida albicans. Description: Ratio of compound IZ to nystatin IZ for Candida albicans MTCC 227 at 10 ug/ml by disk diffusion method. It counts as functional.
The test system of series [5] is Pseudomonas aeruginosa. Put plainly: Ratio of compound IZ to amikacin IZ for Pseudomonas aeruginosa […] at 10 ug/ml by disk diffusion method. It counts as functional.
The test system of series [6] is Escherichia coli. Put plainly: Ratio of compound IZ to amikacin IZ for Escherichia coli MTCC 722 at 10 ug/ml by disk diffusion method. It counts as functional.
For series [7], the system named is Streptococcus pyogenes. Put plainly: Antibacterial activity against Streptococcus pyogenes MTCC 389 at 10 ug/ml by disk diffusion method. It counts as functional. Conditions: read-out: IZ.
The subject of series [8] is Streptococcus pyogenes. Put plainly: Ratio of compound IZ to amikacin IZ for Streptococcus pyogenes MTCC 389 at 10 ug/ml by disk diffusion method. The class given is functional.
The subject of series [9] is Candida albicans. Description: Antifungal activity against Candida albicans MTCC 227 at 10 ug/ml by disk diffusion method. It counts as functional. Conditions: read-out: IZ.
The test system of series [10] is Escherichia coli. Description: Antibacterial activity against Escherichia coli MTCC 722 at 10 ug/ml by disk diffusion method. Conditions: read-out: IZ. The class given is functional.

For `CCOC(=O)C1C(c2ccc3c(c2)OCO3)N(N=O)C(c2ccc3c(c2)OCO3)C(C(=O)OCC)S1(=O)=O` (centres undefined), the Activity result in the series with Mus musculus is “Non-toxic”. The zone of inhibition at 10 µg/mL with Pseudomonas aeruginosa [1] was found to be 12 mm; with Staphylococcus aureus [3] it was 9 mm; in the series on Streptococcus pyogenes [7] it was 11 mm; in the series on Candida albicans [9] it was 10 mm; with Escherichia coli [10], 8 mm. Moreover, the Ratio in the series on Staphylococcus aureus [2] is 0.5; in the series with Candida albicans [4], 0.53; with Pseudomonas aeruginosa [5], 0.71; in the series on Escherichia coli [6] it was 0.47; in the series on Streptococcus pyogenes [8], 0.55.

Regarding `CCOC(=O)C1C(c2ccsc2)N(N=O)C(c2ccsc2)C(C(=O)OCC)S1(=O)=O` (centres undefined), in the series on Mus musculus, the Activity entry is given as “Non-toxic”. Further, the zone of inhibition at 10 µg/mL turned out to be 13 mm in the series on Pseudomonas aeruginosa [1]; 15 mm with Staphylococcus aureus [3]; 9 mm in the series on Streptococcus pyogenes [7]; 14 mm with Candida albicans [9]; 14 mm in the series with Escherichia coli [10]. The Ratio in the series on Staphylococcus aureus [2] is on record as 0.83; in the series on Candida albicans [4], 0.74; in the series on Pseudomonas aeruginosa [5] it was 0.76; with Escherichia coli [6] it was 0.82; in the series on Streptococcus pyogenes [8], 0.45.

`CCOC(=O)C1C(c2ccc(Cl)cc2)N(N=O)C(c2ccc(Cl)cc2)C(C(=O)OCC)S1(=O)=O` (centres undefined): the Activity entry in the series on Mus musculus is listed as “Non-toxic”. Also, the zone of inhibition at 10 µg/mL is 12 mm in the series on Pseudomonas aeruginosa [1]; 10 mm with Staphylococcus aureus [3]; 10 mm in the series with Streptococcus pyogenes [7]; 16 mm in the series with Candida albicans [9]; 13 mm in the series with Escherichia coli [10]. Moreover, the Ratio in the series with Staphylococcus aureus [2] came out at 0.56; in the series on Candida albicans [4], 0.84; with Pseudomonas aeruginosa [5], 0.71; in the series with Escherichia coli [6] it was 0.76; in the series on Streptococcus pyogenes [8], 0.5.

`CCOC(=O)C1C(c2ccc(OC)cc2)N(N=O)C(c2ccc(OC)cc2)C(C(=O)OCC)S1(=O)=O` (centres undefined): the Activity result in the series with Mus musculus was “Non-toxic”. Further, the zone of inhibition at 10 µg/mL in the series on Pseudomonas aeruginosa [1] turned out to be 18 mm; in the series with Staphylococcus aureus [3], 11 mm; with Streptococcus pyogenes [7], 13 mm; in the series with Candida albicans [9] it was 13 mm; in the series on Escherichia coli [10] it was 12 mm. The Ratio in the series with Staphylococcus aureus [2] is recorded as 0.61; in the series with Candida albicans [4], 0.69; in the series with Pseudomonas aeruginosa [5] it was 1.11; in the series on Escherichia coli [6], 0.71; with Streptococcus pyogenes [8] it was 0.65.

As for `CCOC(=O)C1C(c2ccco2)N(N=O)C(c2ccco2)C(C(=O)OCC)S1(=O)=O` (centres undefined), in the series on Mus musculus, the Activity result is reported as “Non-toxic”. For the same molecule, the zone of inhibition at 10 µg/mL is 10 mm with Pseudomonas aeruginosa [1]; 12 mm in the series with Staphylococcus aureus [3]; 11 mm with Streptococcus pyogenes [7]; 14 mm in the series on Candida albicans [9]; 15 mm with Escherichia coli [10]. The Ratio was 0.67 in the series with Staphylococcus aureus [2]; 0.74 with Candida albicans [4]; 0.59 in the series with Pseudomonas aeruginosa [5]; 0.88 in the series on Escherichia coli [6]; 0.55 with Streptococcus pyogenes [8].

Take `CCOC(=O)C1C(c2cccs2)N(N=O)C(c2cccs2)C(C(=O)OCC)S1(=O)=O` (centres undefined): the Activity entry in the series with Mus musculus is “Non-toxic”. The zone of inhibition at 10 µg/mL stood at 14 mm with Pseudomonas aeruginosa [1]; 17 mm in the series with Staphylococcus aureus [3]; 15 mm in the series on Streptococcus pyogenes [7]; 20 mm in the series with Candida albicans [9]; 13 mm in the series with Escherichia coli [10]. The Ratio in the series on Staphylococcus aureus [2] is listed as 0.94; in the series on Candida albicans [4], 1.11; in the series on Pseudomonas aeruginosa [5], 0.82; in the series on Escherichia coli [6] it was 0.76; with Streptococcus pyogenes [8], 0.75.

Consider `CCOC(=O)C1C(c2ccc(C)cc2)N(N=O)C(c2ccc(C)cc2)C(C(=O)OCC)S1(=O)=O` (centres undefined), for which the Activity result in the series with Mus musculus is “Non-toxic”. In addition, the zone of inhibition at 10 µg/mL in the series with Pseudomonas aeruginosa [1] was 9 mm; with Staphylococcus aureus [3] it was 11 mm; in the series on Streptococcus pyogenes [7], 17 mm; in the series with Candida albicans [9], 11 mm; in the series with Escherichia coli [10] it was 17 mm. Further, the Ratio in the series on Staphylococcus aureus [2] turned out to be 0.61; with Candida albicans [4], 0.58; with Pseudomonas aeruginosa [5], 0.53; with Escherichia coli [6] it was 1; in the series with Streptococcus pyogenes [8], 0.85.

As for `CCOC(=O)C1C(c2cccc(Cl)c2)N(N=O)C(c2cccc(Cl)c2)C(C(=O)OCC)S1(=O)=O` (centres undefined), the Activity result in the series on Mus musculus was “Non-toxic”. The zone of inhibition at 10 µg/mL in the series on Pseudomonas aeruginosa [1] was found to be 10 mm; in the series with Staphylococcus aureus [3], 11 mm; in the series with Streptococcus pyogenes [7], 8 mm; in the series on Candida albicans [9], 15 mm; in the series with Escherichia coli [10] it was 14 mm. Moreover, the Ratio in the series with Staphylococcus aureus [2] was determined as 0.61; with Candida albicans [4] it was 0.79; with Pseudomonas aeruginosa [5], 0.59; with Escherichia coli [6], 0.82; in the series on Streptococcus pyogenes [8], 0.4.

For the molecule `CCOC(=O)C1C(c2ccc(OC)c(OC)c2)N(N=O)C(c2ccc(OC)c(OC)c2)C(C(=O)OCC)S1(=O)=O` (centres undefined), the Activity result with Mus musculus is given as “Non-toxic”. In addition, the zone of inhibition at 10 µg/mL in the series on Pseudomonas aeruginosa [1] is 11 mm; in the series with Staphylococcus aureus [3], 12 mm; in the series with Streptococcus pyogenes [7] it was 8 mm; with Candida albicans [9], 14 mm; in the series with Escherichia coli [10], 13 mm. The Ratio in the series on Staphylococcus aureus [2] was 0.67; with Candida albicans [4], 0.74; with Pseudomonas aeruginosa [5], 0.65; in the series on Escherichia coli [6] it was 0.76; in the series on Streptococcus pyogenes [8], 0.4.

Consider `NCC[C@H](O)C(=O)N[C@@H]1C[C@H](N)[C@@H](O[C@H]2O[C@H](CN)[C@@H](O)[C@H](O)[C@H]2O)[C@H](O)[C@H]1O[C@H]1O[C@H](CO)[C@@H](O)[C@H](N)[C@H]1O` [AMIKACIN], for which the zone of inhibition at 10 µg/mL is 17 mm in the series with Pseudomonas aeruginosa [1], 18 mm in the series with Staphylococcus aureus [3], 20 mm in the series with Streptococcus pyogenes [7] and 17 mm in the series on Escherichia coli [10].

In the case of `CCOC(=O)C1C(c2cc3ccccc3nc2Cl)N(N=O)C(c2cc3ccccc3nc2Cl)C(C(=O)OCC)S1(=O)=O` (centres undefined), in the series on Mus musculus, the Activity entry is recorded as “Non-toxic”. Also, the zone of inhibition at 10 µg/mL in the series on Pseudomonas aeruginosa [1] was found to be 10 mm; in the series on Staphylococcus aureus [3] it was 14 mm; in the series on Streptococcus pyogenes [7], 12 mm; in the series on Candida albicans [9], 18 mm; in the series on Escherichia coli [10], 9 mm. The Ratio in the series on Staphylococcus aureus [2] was determined as 0.78; with Candida albicans [4] it was 0.95; in the series on Pseudomonas aeruginosa [5], 0.59; in the series with Escherichia coli [6] it was 0.53; in the series on Streptococcus pyogenes [8] it was 0.6.

In the case of `CCOC(=O)C1C(c2c[nH]c3ccccc23)N(N=O)C(c2c[nH]c3ccccc23)C(C(=O)OCC)S1(=O)=O` (centres undefined), the Activity entry with Mus musculus was “Non-toxic”. For the same molecule, the zone of inhibition at 10 µg/mL in the series with Pseudomonas aeruginosa [1] was 11 mm; in the series with Staphylococcus aureus [3], 8 mm; in the series on Streptococcus pyogenes [7] it was 9 mm; in the series with Candida albicans [9], 15 mm; with Escherichia coli [10], 12 mm. Further, the Ratio with Staphylococcus aureus [2] was 0.44; in the series with Candida albicans [4], 0.79; in the series with Pseudomonas aeruginosa [5] it was 0.65; with Escherichia coli [6], 0.71; in the series with Streptococcus pyogenes [8], 0.45.

Consider `CCOC(=O)C1C(c2ccc[nH]2)N(N=O)C(c2ccc[nH]2)C(C(=O)OCC)S1(=O)=O` (centres undefined), for which the Activity entry in the series on Mus musculus is recorded as “Non-toxic”. Besides, the zone of inhibition at 10 µg/mL worked out at 12 mm with Pseudomonas aeruginosa [1]; 13 mm in the series with Staphylococcus aureus [3]; 14 mm in the series on Streptococcus pyogenes [7]; 11 mm in the series with Candida albicans [9]; 11 mm with Escherichia coli [10]. For the same molecule, the Ratio in the series on Staphylococcus aureus [2] is 0.72; in the series with Candida albicans [4] it was 0.58; in the series on Pseudomonas aeruginosa [5], 0.71; with Escherichia coli [6], 0.65; in the series with Streptococcus pyogenes [8] it was 0.7.

For the molecule `CCOC(=O)C1C(c2ccccn2)N(N=O)C(c2ccccn2)C(C(=O)OCC)S1(=O)=O` (centres undefined), the Activity result in the series with Mus musculus was “Non-toxic”. In addition, the zone of inhibition at 10 µg/mL with Pseudomonas aeruginosa [1] came out at 9 mm; in the series on Staphylococcus aureus [3], 13 mm; in the series with Streptococcus pyogenes [7], 11 mm; in the series with Candida albicans [9], 12 mm; with Escherichia coli [10], 10 mm. Besides, the Ratio in the series on Staphylococcus aureus [2] is listed as 0.72; in the series with Candida albicans [4], 0.63; in the series with Pseudomonas aeruginosa [5] it was 0.53; in the series on Escherichia coli [6], 0.59; with Streptococcus pyogenes [8] it was 0.55.

Consider `CCOC(=O)C1C(c2ccccc2)N(N=O)C(c2ccccc2)C(C(=O)OCC)S1(=O)=O` (centres undefined), for which, in the series on Mus musculus, the Activity entry is on record as “Non-toxic”. In addition, the zone of inhibition at 10 µg/mL with Pseudomonas aeruginosa [1] worked out at 13 mm; in the series with Staphylococcus aureus [3] it was 11 mm; in the series with Streptococcus pyogenes [7], 15 mm; in the series with Candida albicans [9] it was 13 mm; in the series on Escherichia coli [10], 12 mm. Also, the Ratio with Staphylococcus aureus [2] is reported as 0.61; with Candida albicans [4], 0.69; in the series on Pseudomonas aeruginosa [5], 0.76; in the series on Escherichia coli [6], 0.71; in the series with Streptococcus pyogenes [8], 0.75.

Turning to `CCOC(=O)C1C(c2ccccc2Cl)N(N=O)C(c2ccccc2Cl)C(C(=O)OCC)S1(=O)=O` (centres undefined), the Activity entry in the series with Mus musculus is on record as “Non-toxic”. Moreover, the zone of inhibition at 10 µg/mL in the series with Pseudomonas aeruginosa [1] is 12 mm; with Staphylococcus aureus [3], 9 mm; in the series with Streptococcus pyogenes [7], 10 mm; in the series with Candida albicans [9], 16 mm; in the series on Escherichia coli [10] it was 13 mm. Also, the Ratio with Staphylococcus aureus [2] was 0.5; in the series with Candida albicans [4], 0.84; in the series with Pseudomonas aeruginosa [5] it was 0.71; with Escherichia coli [6] it was 0.76; with Streptococcus pyogenes [8], 0.5.
